Assay results reported in patent US10294202B2, “Pyrrolidinones as herbicides” (FMC Corporation, priority 2013, dated 2019).

Tests used:
wheat = assay: Test A pre-/postemergence herbicide test; assay type: in vivo, Triticum aestivum
Procedure, shortened: (§1)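 Visual 0–100 ratings (100 = complete control) made about 10 days after treatment, greenhouse-held plants compared with untreated controls. Treatments: postemergence sprays on one- to two-leaf plants (2–10 cm tall) and preemergence directed soil sprays after planting in loam–sand, chemicals formulated in non-phytotoxic solvent containing surfactant.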

barnyardgrass [1] = assay: Test C flooded paddy test; assay type: in vivo, Echinochloa crus-galli; conditions: Flood
Procedure, shortened: (§2)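 Visual ratings from 0, no effect, to 100, complete control, were made against untreated controls after 13–15 greenhouse days. Compounds had gone straight into paddy water 3 cm above the soil, kept at that depth, on 2-leaf-stage plants.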

ducksalad [2] = assay: Test C flooded paddy test; assay type: in vivo, Heteranthera limosa; conditions: Flood
Procedure, shortened: as §2

sedge, umbrella [3] = assay: Test B flooded paddy test; assay type: in vivo, Cyperus difformis; conditions: Flood, scale of 0 to 100 where 0 is no effect and 100 is complete control
Procedure, shortened: (§3)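 2-leaf plants; flood 3 cm over soil; compound into paddy water; depth held. Greenhouse 13–15 d. Visual rating vs controls, 0 (no effect) to 100 (complete control); dash = not tested.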

morningglory = assay: Test A pre-/postemergence herbicide test; assay type: in vivo, Ipomoea spp.
Procedure, shortened: as §1

pigweed = assay: Test A pre-/postemergence herbicide test; assay type: in vivo, Amaranthus retroflexus
Procedure, shortened: as §1

ducksalad [4] = assay: Test B flooded paddy test; assay type: in vivo, Heteranthera limosa; conditions: Flood, scale of 0 to 100 where 0 is no effect and 100 is complete control
Procedure, shortened: as §3

velvetleaf = assay: Test A pre-/postemergence herbicide test; assay type: in vivo, Abutilon theophrasti
Procedure, shortened: as §1

barnyardgrass [5] = assay: Test A pre-/postemergence herbicide test; assay type: in vivo, Echinochloa crus-galli
Procedure, shortened: as §1

sedge, umbrella [6] = assay: Test C flooded paddy test; assay type: in vivo, Cyperus difformis; conditions: Flood
Procedure, shortened: as §2

rice [7] = assay: Test C flooded paddy test; assay type: in vivo, Oryza sativa; conditions: Flood
Procedure, shortened: as §2

rice [8] = assay: Test B flooded paddy test; assay type: in vivo, Oryza sativa; conditions: Flood, scale of 0 to 100 where 0 is no effect and 100 is complete control
Procedure, shortened: as §3

corn = assay: Test A pre-/postemergence herbicide test; assay type: in vivo, Zea mays
Procedure, shortened: as §1

barnyardgrass [9] = assay: Test B flooded paddy test; assay type: in vivo, Echinochloa crus-galli; conditions: Flood, scale of 0 to 100 where 0 is no effect and 100 is complete control
Procedure, shortened: as §3

crabgrass, large = assay: Test A pre-/postemergence herbicide test; assay type: in vivo, Digitaria sanguinalis
Procedure, shortened: as §1

giant foxtail = assay: Test A pre-/postemergence herbicide test; assay type: in vivo, Setaria faberii
Procedure, shortened: as §1

kochia = assay: Test A pre-/postemergence herbicide test; assay type: in vivo, Kochia scoparia; conditions: for Plant response rating, Kochia: 125 g ai/ha
Procedure, shortened: as §1

ryegrass, Italian = assay: Test A pre-/postemergence herbicide test; assay type: in vivo, Lolium multiflorum; conditions: for Plant response rating, Ryegrass, Italian: 125 g ai/ha
Procedure, shortened: as §1

blackgrass = assay: Test A postemergence herbicide test; assay type: in vivo, Alopecurus myosuroides
Procedure, shortened: (§4)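 Visual injury rating, 0 (no effect) to 100 (complete control), versus untreated controls ~10 days after treatment. Postemergence spray applied at one- to two-leaf stage, plants 2–10 cm tall, potted in loam soil/sand. Greenhouse-held.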

galium = assay: Test A postemergence herbicide test; assay type: in vivo, Galium aparine; conditions: 125 g ai/ha, visual rating on 0 to 100 scale (0 no effect, 100 complete control), approx. 10 days
Procedure, shortened: as §4

ragweed = assay: Test A pre-/postemergence herbicide test; assay type: in vivo, Ambrosia elatior; conditions: for Plant response rating, Ragweed: 125 g ai/ha
Procedure, shortened: as §1

[10] = Postemergence, 125 g ai/ha, 0 to 100 scale, 0 no effect, 100 complete control
[11] = Postemergence, 500 g ai/ha, 0 to 100 scale (0 no effect, 100 complete control)
[12] = Preemergence, 125 g ai/ha, visual rating on 0 to 100 scale (0 no effect, 100 complete control)
[13] = preemergence, 500 g ai/ha, 0 to 100 scale
[14] = 125 g ai/ha, scale of 0 to 100 where 0 is no effect and 100 is complete control, 13 to 15 days
[15] = Postemergence, 125 g ai/ha, visual rating on 0 to 100 scale (0 no effect, 100 complete control), approx. 10 days
[16] = Postemergence, visual rating on 0 to 100 scale (0 no effect, 100 complete control), approx. 10 days
[17] = Preemergence, 0 to 100 scale where 0 is no effect and 100 is complete control
[18] = Preemergence, 500 g ai/ha, visual rating on 0 to 100 scale (0 no effect, 100 complete control)
[19] = 250 g ai/ha, scale of 0 to 100 where 0 is no effect and 100 is complete control, 13 to 15 days
[20] = Preemergence, 125 g ai/ha, 0 to 100 scale where 0 is no effect and 100 is complete control

## O=C1NCC(c2ccc(Cl)cc2)C1C(=O)Nc1ccccc1F (racemic) [Compound 87]
wheat; [10]
  Plant response rating, Wheat: 0
wheat; [11]
  Plant response rating, Wheat: 20
wheat; [12]
  Wheat plant response rating: 0
wheat; [13]
  Plant response rating, Wheat: 10
Barnyardgrass [1]; [14]
  Plant response rating, Barnyardgrass: 0
Barnyardgrass [1]; 250 g ai/ha, scale 0 to 100
  Plant response rating, Barnyardgrass: 0
Barnyardgrass [1]; 500 g ai/ha, scale 0 to 100
  Plant response rating, Barnyardgrass: 25
Barnyardgrass [1]; 1000 g ai/ha, scale 0 to 100
  Plant response rating, Barnyardgrass: 40
Ducksalad [2]; [14]
  Plant response rating, Ducksalad: 75
Ducksalad [2]; 250 g ai/ha, scale 0 to 100
  Plant response rating, Ducksalad: 95
Ducksalad [2]; 500 g ai/ha, scale 0 to 100
  Plant response rating, Ducksalad: 100
Ducksalad [2]; 1000 g ai/ha, scale 0 to 100
  Plant response rating, Ducksalad: 100
sedge, umbrella [3]; 250 g ai/ha
  Plant response rating, Sedge, Umbrella: 0
morningglory; [10]
  Plant response rating, Morningglory: 0
morningglory; [11]
  Plant response rating, Morningglory: 10
morningglory; [12]
  Morningglory plant response rating: 0
morningglory; [13]
  Plant response rating, Morningglory: 0
pigweed; [10]
  Plant response rating, Pigweed: 0
pigweed; [11]
  Plant response rating, Pigweed: 20
pigweed; [12]
  Pigweed plant response rating: 0
pigweed; [13]
  Plant response rating, Pigweed: 0
Ducksalad [4]; 250 g ai/ha
  Plant response rating, Ducksalad: 80
velvetleaf; [10]
  Plant response rating, Velvetleaf: 0
velvetleaf; [11]
  Plant response rating, Velvetleaf: 0
velvetleaf; [12]
  Velvetleaf plant response rating: 0
velvetleaf; [13]
  Plant response rating, Velvetleaf: 0
Barnyardgrass [5]; [10]
  Plant response rating, Barnyardgrass: 50
Barnyardgrass [5]; [11]
  Plant response rating, Barnyardgrass: 80
Barnyardgrass [5]; [12]
  Barnyardgrass plant response rating: 20
Barnyardgrass [5]; preemergence, 500 g ai/ha, 0 to 100 scale (0 no effect, 100 complete control)
  Plant response rating, Barnyardgrass: 80
sedge, umbrella [6]; [14]
  Plant response rating, Sedge, Umbrella: 0
sedge, umbrella [6]; 250 g ai/ha, scale 0 to 100
  Plant response rating, Sedge, Umbrella: 0
sedge, umbrella [6]; 500 g ai/ha, scale 0 to 100
  Plant response rating, Sedge, Umbrella: 0
sedge, umbrella [6]; 1000 g ai/ha, scale 0 to 100
  Plant response rating, Sedge, Umbrella: 0
Rice [7]; [14]
  Plant response rating, Rice: 0
Rice [7]; 250 g ai/ha, scale 0 to 100
  Plant response rating, Rice: 0
Rice [7]; 500 g ai/ha, scale 0 to 100
  Plant response rating, Rice: 0
Rice [7]; 1000 g ai/ha, scale 0 to 100
  Plant response rating, Rice: 30
Rice [8]; 250 g ai/ha
  Plant response rating, Rice: 0
corn; [10]
  Plant response rating, Corn: 0
corn; [11]
  Plant response rating, Corn: 0
corn; [12]
  Corn plant response rating: 0
corn; [13]
  Plant response rating, Corn: 0
Barnyardgrass [9]; 250 g ai/ha
  Plant response rating, Barnyardgrass: 60
crabgrass, large; [10]
  Plant response rating, Crabgrass, Large: 60
crabgrass, large; [11]
  Plant response rating, Crabgrass, Large: 80
crabgrass, large; [12]
  Crabgrass, Large plant response rating: 80
crabgrass, large; [13]
  Plant response rating, Crabgrass, Large: 90
Giant foxtail; [10]
  Plant response rating, Foxtail, Giant: 50
Giant foxtail; [11]
  Plant response rating, Foxtail, Giant: 80
Giant foxtail; [12]
  Foxtail, Giant plant response rating: 60
Giant foxtail; [13]
  Plant response rating, Foxtail, Giant: 90

## O=C1NCC(c2cccc(C(F)(F)F)c2)C1C(=O)Nc1cccc(Cl)c1F (centres unmarked) [Compound 344]
wheat; [15]
  Plant response rating, Wheat: 0
kochia; [16]
  Plant response rating, Kochia: 0
kochia; [17]
  Plant response rating, Kochia: 0
kochia; [18]
  Kochia plant response rating: 0
Barnyardgrass [1]; [14]
  Plant response rating, Barnyardgrass: 0
Barnyardgrass [1]; [19]
  Plant response rating, Barnyardgrass: 35
Barnyardgrass [1]; 500 g ai/ha, scale 0 to 100
  Plant response rating, Barnyardgrass: 40
Barnyardgrass [1]; 1000 g ai/ha, scale 0 to 100
  Plant response rating, Barnyardgrass: 55
Ducksalad [2]; [14]
  Plant response rating, Ducksalad: 50
Ducksalad [2]; [19]
  Plant response rating, Ducksalad: 60
Ducksalad [2]; 500 g ai/ha, scale 0 to 100
  Plant response rating, Ducksalad: 65
Ducksalad [2]; 1000 g ai/ha, scale 0 to 100
  Plant response rating, Ducksalad: 85
sedge, umbrella [3]; 1000 g ai/ha
  Plant response rating, Sedge, Umbrella: 0
pigweed; [15]
  Plant response rating, Pigweed: 0
pigweed; [20]
  Plant response rating, Pigweed: 0
pigweed; [18]
  Pigweed plant response rating: 0
Ducksalad [4]; 1000 g ai/ha
  Plant response rating, Ducksalad: 90
ryegrass, Italian; [16]
  Plant response rating, Ryegrass, Italian: 0
ryegrass, Italian; [17]
  Plant response rating, Ryegrass, Italian: 0
ryegrass, Italian; [18]
  Ryegrass, Italian plant response rating: 30
Barnyardgrass [5]; [15]
  Plant response rating, Barnyardgrass: 60
Barnyardgrass [5]; [11]
  Plant response rating, Barnyardgrass: 90
Barnyardgrass [5]; [20]
  Plant response rating, Barnyardgrass: 50
Barnyardgrass [5]; [18]
  Barnyardgrass plant response rating: 90
sedge, umbrella [6]; [14]
  Plant response rating, Sedge, Umbrella: 0
sedge, umbrella [6]; [19]
  Plant response rating, Sedge, Umbrella: 0
sedge, umbrella [6]; 500 g ai/ha, scale 0 to 100
  Plant response rating, Sedge, Umbrella: 0
sedge, umbrella [6]; 1000 g ai/ha, scale 0 to 100
  Plant response rating, Sedge, Umbrella: 0
blackgrass; 125 g ai/ha, visual rating on 0 to 100 scale (0 no effect, 100 complete control), approx. 10 days
  Plant response rating, Blackgrass: 0
blackgrass; 500 g ai/ha, 0 to 100 scale (0 no effect, 100 complete control)
  Plant response rating, Blackgrass: 0
galium
  Plant response rating, Galium: 0
Rice [7]; [14]
  Plant response rating, Rice: 0
Rice [7]; [19]
  Plant response rating, Rice: 0
Rice [7]; 500 g ai/ha, scale 0 to 100
  Plant response rating, Rice: 0
Rice [7]; 1000 g ai/ha, scale 0 to 100
  Plant response rating, Rice: 0
Rice [8]; 1000 g ai/ha
  Plant response rating, Rice: 10
corn; [15]
  Plant response rating, Corn: 0
corn; [11]
  Plant response rating, Corn: 0
Barnyardgrass [9]; 1000 g ai/ha
  Plant response rating, Barnyardgrass: 85
ragweed; [16]
  Plant response rating, Ragweed: 0
ragweed; [17]
  Plant response rating, Ragweed: 0
ragweed; [18]
  Ragweed plant response rating: 0
Giant foxtail; [15]
  Plant response rating, Foxtail, Giant: 80
Giant foxtail; [11]
  Plant response rating, Foxtail, Giant: 90
Giant foxtail; [20]
  Plant response rating, Foxtail, Giant: 80
Giant foxtail; [18]
  Foxtail, Giant plant response rating: 90
